Assay results taken from PubChem BioAssay AID248 (DTP/NCI, 2004).
“And” between values parts separate entries of the source, which are not always exact repeats. Equal values may be shown once. Toxic doses and inconclusive results are not listed. Cut-off read from the data, not from the text of the source: active = T/C of 150% or more; inactive = T/C below 125%.

Test system: L1210 leukemia ip in BDF1 mice, survival T/C
Test: NCI In Vivo Anticancer Drug Screen. Data for tumor model L1210 Leukemia (intraperitoneal) in B6D2F1 (BDF1) mice
Settings: endpoint: mean survival time, higher = longer survival
How it was run: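 Transplantable tumor model; survival measured in treated vs vehicle control mice. Value = treated/control.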

[1] = dose: 100.0 mg/kg/injection, schedule: Q01DX009 (ip), vehicle: Klucel (hydroxypropylcellulose) (HPC)
[2] = dose: 100.0 mg/kg/injection, schedule: Q04DX003 (ip), vehicle: Klucel (hydroxypropylcellulose) (HPC)
[3] = dose: 200.0 mg/kg/injection, schedule: Q01DX009 (ip), vehicle: Klucel (hydroxypropylcellulose) (HPC)
[4] = dose: 200.0 mg/kg/injection, schedule: Q04DX003 (ip), vehicle: Klucel (hydroxypropylcellulose) (HPC)
[5] = dose: 400.0 mg/kg/injection, schedule: Q01DX009 (ip), vehicle: Klucel (hydroxypropylcellulose) (HPC)
[6] = dose: 400.0 mg/kg/injection, schedule: Q04DX003 (ip), vehicle: Klucel (hydroxypropylcellulose) (HPC)
[7] = dose: 100.0 mg/kg/injection, schedule: Q04DX003 (ip), vehicle: saline
[8] = dose: 200.0 mg/kg/injection, schedule: Q04DX003 (ip), vehicle: saline

Measured: T/C

Sc1ccc2ccccc2c1CN(Cc1ccccc1)Cc1c(S)ccc2ccccc12
inactive: dose: 100.0 mg/kg/injection, schedule: Q01DX001 (ip), vehicle: saline 91 % of control | dose: 200.0 mg/kg/injection, schedule: Q01DX001 (ip), vehicle: saline 90 % of control | dose: 400.0 mg/kg/injection, schedule: Q01DX001 (ip), vehicle: saline 91 % of control

Fc1ccc(/C=C2/c3cc(Cl)ccc3-c3c(Cl)cc(Cl)cc32)cc1
inactive: dose: 100.0 mg/kg/injection, schedule: Q01DX001 (ip), vehicle: Klucel (hydroxypropylcellulose) (HPC) 96 % of control | [1] 98 % of control | [2] 98 % of control | dose: 200.0 mg/kg/injection, schedule: Q01DX001 (ip), vehicle: Klucel (hydroxypropylcellulose) (HPC) 90 % of control | [3] 104 % of control | [4] 90 % of control | dose: 400.0 mg/kg/injection, schedule: Q01DX001 (ip), vehicle: Klucel (hydroxypropylcellulose) (HPC) 89 % of control | [5] 114 % of control | [6] 95 % of control

CCOC(=O)c1c2c(=O)n(C)c(=O)n(C)c2nc2c1c(=O)n(C)c(=O)n2C
inactive: dose: 50.0 mg/kg/injection, schedule: Q01DX009 (ip), vehicle: Klucel (hydroxypropylcellulose) (HPC) 93 % of control | [1] 93 % of control | [3] 86 % of control

CN(CCO)Cc1ccc(Cl)cc1
inactive: dose: 150.0 mg/kg/injection, schedule: Q01DX015 (ip), vehicle: saline 91 % of control

O=COCC1CC2C=CC1C2 (centres undefined)
inactive: dose: 222.0 mg/kg/injection, schedule: Q01DX Z (ip), vehicle: saline 98 % of control | dose: 333.0 mg/kg/injection, schedule: Q01DX Z (ip), vehicle: saline 102 % of control | dose: 500.0 mg/kg/injection, schedule: Q01DX Z (ip), vehicle: saline 97 % of control

Cc1c(C)c(C)c(C(=O)O)c(C)c1C
inactive: dose: 50.0 mg/kg/injection, schedule: Q01DX009 (ip), vehicle: saline with Tween-80 93 % of control | dose: 100.0 mg/kg/injection, schedule: Q01DX009 (ip), vehicle: saline with Tween-80 90 % of control | dose: 200.0 mg/kg/injection, schedule: Q01DX009 (ip), vehicle: saline with Tween-80 93 % of control

N#CCC(C(=O)c1cccnc1)c1ccccc1 (centres undefined)
inactive: dose: 100.0 mg/kg/injection, schedule: Q04DX002 (ip), vehicle: gum acacia 104 % of control | dose: 200.0 mg/kg/injection, schedule: Q04DX002 (ip), vehicle: gum acacia 87 % of control

S=C(SSC(=S)N1CCCCC1)N1CCCCC1
inactive: [7] 104 % of control | [8] 98 % of control | dose: 400.0 mg/kg/injection, schedule: Q04DX003 (ip), vehicle: saline 101 % of control

C[PH+](c1ccccc1)c1ccccc1.C[PH+](c1ccccc1)c1ccccc1.[Br][Pd][Br]
inactive: dose: 50.0 mg/kg/injection, schedule: Q04DX003 (ip), vehicle: saline 98 % of control | [7] 105 % of control | [8] 100 % of control

O=C(/C=C(\c1ccccc1)C1C2C=CC(C2)C1c1ccccc1)c1ccccc1 (centres undefined)
inactive: dose: 100.0 mg/kg/injection, schedule: Q01DX001 (ip), vehicle: saline with Tween-80 97 % of control | dose: 200.0 mg/kg/injection, schedule: Q01DX001 (ip), vehicle: saline with Tween-80 95 % of control | dose: 400.0 mg/kg/injection, schedule: Q01DX001 (ip), vehicle: saline with Tween-80 96 % of control

Nc1ccc(S(=O)(=O)Nc2cccc3ccccc23)cc1
inactive: [1] 100 % of control | [2] 90 % of control | [3] 99 % of control | [4] 92 % of control | [5] 101 % of control | [6] 95 % of control

O=C1NC(c2cccs2)(c2cccs2)C(=O)N1Cl
inactive: dose: 6.25 mg/kg/injection, schedule: Q01DX009 (ip), vehicle: water 100 % of control | dose: 12.5 mg/kg/injection, schedule: Q01DX009 (ip), vehicle: water 97 % of control and 116 % of control | dose: 25.0 mg/kg/injection, schedule: Q01DX009 (ip), vehicle: water 98 % of control and 113 % of control | dose: 25.0 mg/kg/injection, schedule: Q04DX003 (ip), vehicle: water 92 % of control | dose: 50.0 mg/kg/injection, schedule: Q01DX009 (ip), vehicle: water 104 % of control and 87 % of control | dose: 50.0 mg/kg/injection, schedule: Q04DX003 (ip), vehicle: water 100 % of control | dose: 100.0 mg/kg/injection, schedule: Q01DX009 (ip), vehicle: water 87 % of control | dose: 100.0 mg/kg/injection, schedule: Q04DX003 (ip), vehicle: water 97 % of control and 112 % of control | dose: 150.0 mg/kg/injection, schedule: Q01DX009 (ip), vehicle: water 116 % of control | dose: 200.0 mg/kg/injection, schedule: Q01DX009 (ip), vehicle: water 93 % of control
